Measurements: patent US8530648B2, “Diaza-spiro[5.5]undecanes” (Novartis AG, priority 2009, dated 2013)

Assays:
[1] = biological target: hOx1R (Homo sapiens (Human), UniProt O43613); test: Calcium accumulation in cells (FLIPR), hOx1R; format: cell-based; settings: for Ki: inhibition of orexin A induced calcium accumulation, Cheng and Prusoff correction; for inhibition at 10 µM: measured at a concentration of 10 μM of compound
Protocol: (§1) Calcium Accumulation in Cells (FLIPR):
(§2) Cells expressing human orexin 1 or human orexin 2 receptors, were seeded at 8,000 cells/well in 384 well black-walled clear bottom, poly-D-lysine coated plates. After 24 h, the medium was removed and cells were washed once with phosphate buffered saline and serum-deprived overnight in assay buffer (130 mM NaCl, 5.4 mM KCl, 1.8 mM CaCl2, 0.8 mM MgSO4, 0.9 mM NaH2PO4, 25 mM glucose, 20 mM HEPES, pH 7.4) containing bovine serum albumin (1% w/v).
(§3) On the day of the experiment, the cells seeded in black plates were treated with assay buffer containing the Ca^2+ sensitive fluorescent dye Fluo-4-AM (2 μM), and probenecid (0.1 mM). After 1 h plates were washed twice with, and resuspended in, assay buffer containing probenecid (0.1 mM) using a multi plate washer. […] Fluorescence measurements were then continued every 1 S for 120 S followed by every 4 S for 240 S.
(§4) The measurements were typically made in two sequences:
(§5) Compounds of formula I were tested usually in a concentration range from 10^−9 M to 10^−5 M.
(§6) In the second round, performed one hour later (to allow for equilibration), Orexin A was tested either in the absence (calibration curves, Orexin A agonist controls) or in the presence of compounds of formula I to determine antagonism.

[2] = biological target: hOx2R (Homo sapiens (Human), UniProt O43614); test: Calcium accumulation in cells (FLIPR), hOx2R; format: cell-based; settings: for Ki: inhibition of orexin A induced calcium accumulation, Cheng and Prusoff correction; for inhibition at 10 µM: measured at a concentration of 10 μM of compound
Chain of hOx2R (O43614 whole entry): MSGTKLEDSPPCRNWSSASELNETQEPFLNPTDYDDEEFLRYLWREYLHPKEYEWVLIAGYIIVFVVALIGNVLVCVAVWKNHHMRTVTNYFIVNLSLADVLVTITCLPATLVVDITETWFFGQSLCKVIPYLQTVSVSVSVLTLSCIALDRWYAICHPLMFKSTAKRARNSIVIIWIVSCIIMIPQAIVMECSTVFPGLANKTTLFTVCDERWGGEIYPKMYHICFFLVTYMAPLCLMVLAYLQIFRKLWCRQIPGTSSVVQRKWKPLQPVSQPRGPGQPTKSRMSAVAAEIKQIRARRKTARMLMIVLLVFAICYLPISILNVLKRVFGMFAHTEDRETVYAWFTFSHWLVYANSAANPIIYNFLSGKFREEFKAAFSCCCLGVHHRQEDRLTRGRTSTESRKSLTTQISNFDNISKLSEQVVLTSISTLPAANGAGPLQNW
Protocol: as §1, §2, §3, §4, §5, §6

Chain of hOx1R (O43613 whole entry): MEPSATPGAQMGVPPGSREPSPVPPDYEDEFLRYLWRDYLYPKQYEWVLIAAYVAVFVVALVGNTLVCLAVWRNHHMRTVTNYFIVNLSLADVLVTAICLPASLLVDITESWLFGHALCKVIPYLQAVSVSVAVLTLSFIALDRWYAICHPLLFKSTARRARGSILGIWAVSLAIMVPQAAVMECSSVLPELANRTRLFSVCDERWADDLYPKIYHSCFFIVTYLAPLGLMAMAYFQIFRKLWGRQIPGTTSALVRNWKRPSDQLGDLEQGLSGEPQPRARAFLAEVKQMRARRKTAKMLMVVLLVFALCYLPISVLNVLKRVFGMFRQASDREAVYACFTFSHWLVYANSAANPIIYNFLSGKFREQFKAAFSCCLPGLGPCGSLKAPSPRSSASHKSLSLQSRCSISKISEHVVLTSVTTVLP

Row | Compound | Ki [1] | Ki [2] | inhibition at 10 µM [1] | inhibition at 10 µM [2]
1 | O=C1N(Cc2cc(F)cc3c2OCOC3)CCCC12CCN(c1cnc3ccccc3n1)CC2 [Example 120, 2-((6-fluoro-4H-benzo[d][1,3]dioxin-8-yl)methyl)-9-(quinoxalin-2-yl)-2,9-diazaspiro[5.5]undecan-1-one] | 700 nM | 125 nM | – | –
2 | O=C1N(Cc2cccc(N3CCOCC3)c2)CCCC12CCN(c1cnc3ccccc3n1)CC2 [Example 59, 2-(3-morpholinobenzyl)-9-(quinoxalin-2-yl)-2,9-diazaspiro[5.5]undecan-1-one] | – | – | 12% | 31%
3 | Cc1noc(C)c1CN1CCCC2(CCN(c3cnc4ccccc4n3)CC2)C1=O [Example 37, 2-((3,5-dimethylisoxazol-4-yl)methyl)-9-(quinoxalin-2-yl)-2,9-diazaspiro[5.5]undecan-1-one] | – | – | 8% | 22%
4 | Cn1nccc1-c1ccccc1CN1CCCC2(CCN(c3cnc4ccccc4n3)CC2)C1=O [Example 148, 2-(2-(1-methyl-1H-pyrazol-5-yl)benzyl)-9-(quinoxalin-2-yl)-2,9-diazaspiro[5.5]undecan-1-one] | – | – | 30% | 32%
5 | Cc1ccccc1CN1CCCC2(CCN(c3cnc4ccccc4n3)CC2)C1=O [Example 19, 2-(2-methylbenzyl)-9-(quinoxalin-2-yl)-2,9-diazaspiro[5.5]undecan-1-one] | – | 495 nM | 12% | –
6 | Cn1nc2ccccc2c1CN1CCCC2(CCN(c3cnc4ccccc4n3)CC2)C1=O [Example 76, 2-((2-methyl-2H-indazol-3-yl)methyl)-9-(quinoxalin-2-yl)-2,9-diazaspiro[5.5]undecan-1-one] | – | 559 nM | 44% | –
7 | O=C1CCCC2(CCN(c3cnc4ccccc4n3)CC2)N1Cc1noc2ccccc12 [Example 135, 1-(benzo[d]isoxazol-3-ylmethyl)-9-(quinoxalin-2-yl)-1,9-diazaspiro[5.5]undecan-2-one] | 242 nM | 185 nM | – | –
8 | CC(c1c[nH]c2ccccc12)N1CCCC2(CCN(c3cnc4ccccc4n3)CC2)C1=O (centres unmarked) [Example 74, 2-(1-(1H-indol-3-yl)ethyl)-9-(quinoxalin-2-yl)-2,9-diazaspiro[5.5]undecan-1-one] | 675 nM | 185 nM | – | –
9 | Cc1nn(-c2ccccc2)nc1CN1CCCC2(CCN(c3cnc4ccccc4n3)CC2)C1=O [Example 175, 2-((5-methyl-2-phenyl-2H-1,2,3-triazol-4-yl)methyl)-9-(quinoxalin-2-yl)-2,9-diazaspiro[5.5]undecan-1-one] | – | – | < 10% | 12%
10 | O=C1N(Cc2c[nH]c3ccccc23)CCCC12CCN(c1ncnc3[nH]ccc13)CC2 [Example 155, 2-((1H-indol-3-yl)methyl)-9-(7H-pyrrolo[2,3-d]pyrimidin-4-yl)-2,9-diazaspiro[5.5]undecan-1-one] | 1530 nM | 239 nM | – | –
11 | O=C1N(Cc2ccc(-c3ncccn3)cc2)CCCC12CCN(c1cnc3ccccc3n1)CC2 [Example 101, 2-(4-(pyrimidin-2-yl)benzyl)-9-(quinoxalin-2-yl)-2,9-diazaspiro[5.5]undecan-1-one] | 2790 nM | 1380 nM | – | –
12 | COc1ccccc1-n1ccnc1CN1CCCC2(CCN(c3cnc4ccccc4n3)CC2)C1=O [Example 112, 2-((1-(2-methoxyphenyl)-1H-imidazol-2-yl)methyl)-9-(quinoxalin-2-yl)-2,9-diazaspiro[5.5]undecan-1-one] | 3520 nM | 1600 nM | – | –
13 | O=C1N(Cc2cccc(N3CCCC3)n2)CCCC12CCN(c1cnc3ccccc3n1)CC2 [Example 103, 2-((6-(pyrrolidln-1-yl)pyridin-2-yl)methyl)-9-(quinoxalin-2-yl)-2,9-diazaspiro[5.5]undecan-1-one] | 2490 nM | 1190 nM | – | –
14 | O=C1N(Cn2nnc3ccccc32)CCCC12CCN(c1cnc3ccccc3n1)CC2 [Example 66, 2-((1H-benzo[d][1,2,3]triazol-1-yl)methyl)-9-(quinoxalin-2-yl)-2,9-diazaspiro[5.5]undecan-1-one] | 1710 nM | 302 nM | – | –
15 | O=C1N(Cc2c[nH]c3ccccc23)CCCC12CCN(c1ccc(-c3nccs3)cn1)CC2 [Example 161, 2-((1H-indol-3-yl)methyl)-9-(5-(thiazol-2-yl)pyridin-2-yl)-2,9-diazaspiro[5.5]undecan-1-one] | – | 713 nM | 40% | –
16 | Cn1ncc2cccc(CN3CCCC4(CCN(c5cnc6ccccc6n5)CC4)C3=O)c21 [Example 107, 2-((1-methyl-1H-indazol-7-yl)methyl)-9-(quinoxalin-2-yl)-2,9-diazaspiro[5.5]undecan-1-one] | 728 nM | 115 nM | – | –
17 | Cc1nc2ccccc2nc1N1CCC2(CCCN(Cc3c[nH]c4ccccc34)C2=O)CC1 [Example 170, 2-((1H-indol-3-yl)methyl)-9-(3-methylquinoxalin-2-yl)-2,9-diazaspiro[5.5]undecan-1-one] | 1810 nM | 535 nM | – | –
18 | N#Cc1ccc(CN2CCCC3(CCN(c4cnc5ccccc5n4)CC3)C2=O)cn1 [Example 100, 5-((1-oxo-9-(quinoxalin-2-yl)-2,9-diazaspiro[5.5]undecan-2-yl)methyl)picolinonitrile] | – | – | 29% | 13%
19 | O=C1N(Cc2c[nH]c3ccccc23)CCCC12CCN(c1nccc(-c3ccccc3)n1)CC2 [Example 154, 2-((1H-indol-3-yl)methyl)-9-(4-phenylpyrimidin-2-yl)-2,9-diazaspiro[5.5]undecan-1-one] | 646 nM | 115 nM | – | –
20 | Cc1cccc(-c2sc(C)nc2CN2CCCC3(CCN(c4cnc5ccccc5n4)CC3)C2=O)c1 [Example 69, 2-((2-methyl-5-m-tolylthiazol-4-yl)methyl)-9-(quinoxalin-2-yl)-2,9-diazaspiro[5.5]undecan-1-one] | 1110 nM | 163 nM | – | –
21 | O=C1N(Cc2cc3ccccc3[nH]2)CCCC12CCN(c1cnc3ccccc3n1)CC2 [Example 121, 2-((1H-indol-2-yl)methyl)-9-(quinoxalin-2-yl)-2,9-diazaspiro[5.5]undecan-1-one] | 2530 nM | 1660 nM | – | –
22 | O=C1N(Cc2ccccc2-c2ncccn2)CCCC12CCN(c1cnc3ccccc3n1)CC2 [Example 151, 2-(2-(pyrimidin-2-yl)benzyl)-9-(quinoxalin-2-yl)-2,9-diazaspiro[5.5]undecan-1-one] | – | 675 nM | 14% | –
23 | O=C1N(Cc2cccc3cnccc23)CCCC12CCN(c1cnc3ccccc3n1)CC2 [Example 55, 2-(isoquinolin-5-ylmethyl)-9-(quinoxalin-2-yl)-2,9-diazaspiro[5.5]undecan-1-one] | 932 nM | 151 nM | – | –
24 | O=C1N(Cc2c[nH]c3ccccc23)CCCC12CCN(c1nc(-c3ccc(F)cc3)cs1)CC2 [Example 172, 2-((1H-indol-3-yl)methyl)-9-(4-(4-fluorophenyl)thiazol-2-yl)-2,9-diazaspiro[5.5]undecan-1-one] | – | – | 14% | 20%
25 | O=C1CCCC2(CCN(c3cnc4ccccc4n3)CC2)N1Cc1c[nH]c2ncccc12 [Example 141, 1-((1H-pyrrolo[2,3-b]pyridin-3-yl)methyl)-9-(quinoxalin-2-yl)-1,9-diazaspiro[5.5]undecan-2-one] | 1980 nM | 404 nM | – | –
